The record followed here is patent US7947676B2, “Pyrazolo[3,4-d]pyrimidine compounds as antitumor agents” (AstraZeneca AB, priority 2004, dated 2011).

In one test the target is T1, EGFR tyrosine kinase (Homo sapiens, UniProt P00533).
T1 construct: Recombinant intracellular fragments of EGFR, erbB2 and erbB4; made in house; host or cells: baculovirus/Sf21 insect cells (cleared lysate)
The test is described as follows: Protein tyrosine kinase phosphorylation assay, Test (a), EGFR. Format: biochemical. The conditions noted are these: recombinant intracellular fragment, ATP at Km concentration; read-out: IC50 (μM) Test (a): Inhibition of EGFR tyrosine kinase protein phosphorylation. As to the method: (§1) This test measures the ability of a test compound to inhibit the phosphorylation of a tyrosine containing polypeptide substrate by EGFR, erbB2 and erbB4 tyrosine kinase enzyme.
(§2) Recombinant intracellular fragments of EGFR, erbB2 and erbB4 (accession numbers X00588, X03363 and L07868 respectively) were cloned and expressed in the baculovirus/Sf21 system. […]
(§3) Constitutive kinase activity of these recombinant proteins was determined by their ability to phosphorylate a synthetic peptide (made up of a random co-polymer of Glutamic Acid, Alanine and Tyrosine in the ratio of 6:3:1). […]
(§4) The immobilised phospho-peptide product of the reaction was detected by immunological methods. […] After further washing, HRP activity in each well of the plate was measured colorimetrically using 22′-Azino-di-[3-ethylbenzthiazoline sulfonate (6)] diammonium salt crystals (ABTS™ from Roche) as a substrate.
(§5) Kinase inhibition for a given compound was expressed as an IC50 value. […] The range of phosphorylation was calculated from the positive (vehicle plus ATP) and negative (vehicle minus ATP) control values.

The target of another test is T2, erbB2 tyrosine kinase (Homo sapiens, UniProt P04626).
T2 construct: Recombinant intracellular fragments of EGFR, erbB2 and erbB4; made in house; host or cells: baculovirus/Sf21 insect cells (cleared lysate)
T2 sequence (P04626 676-1255 limits assumed): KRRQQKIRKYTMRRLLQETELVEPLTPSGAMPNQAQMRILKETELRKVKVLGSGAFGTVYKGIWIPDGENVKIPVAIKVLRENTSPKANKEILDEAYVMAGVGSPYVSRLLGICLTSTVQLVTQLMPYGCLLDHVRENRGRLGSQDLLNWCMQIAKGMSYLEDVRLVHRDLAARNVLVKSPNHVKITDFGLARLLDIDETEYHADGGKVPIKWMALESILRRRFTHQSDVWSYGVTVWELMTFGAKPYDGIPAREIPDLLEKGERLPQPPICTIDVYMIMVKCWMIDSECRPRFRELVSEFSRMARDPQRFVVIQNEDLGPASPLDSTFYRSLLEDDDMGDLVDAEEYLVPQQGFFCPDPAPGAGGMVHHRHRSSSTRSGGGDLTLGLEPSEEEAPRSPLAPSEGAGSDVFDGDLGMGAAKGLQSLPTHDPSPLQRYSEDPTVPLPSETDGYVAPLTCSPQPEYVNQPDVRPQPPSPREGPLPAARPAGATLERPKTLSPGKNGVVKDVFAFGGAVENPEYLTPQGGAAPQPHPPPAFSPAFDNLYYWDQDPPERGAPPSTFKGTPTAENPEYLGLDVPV
The test is described as follows: Protein tyrosine kinase phosphorylation assay, Test (a), erbB2. It is filed as biochemical. The conditions noted are these: recombinant intracellular fragment, ATP at Km concentration; read-out: IC50 (μM) Test (a): Inhibition of erbB2 tyrosine kinase protein phosphorylation. The method, then: as §1, §2, §3, §4, §5

Another test deals with T3, erbB2 (Homo sapiens, UniProt P04626).
T3 construct: to give a cell line that overexpresses full length wild type erbB2 protein; expressed in transfected cells; host or cells: MCF7 (breast carcinoma) derived 'Clone 24' cells
T3 sequence (P04626 23-1255): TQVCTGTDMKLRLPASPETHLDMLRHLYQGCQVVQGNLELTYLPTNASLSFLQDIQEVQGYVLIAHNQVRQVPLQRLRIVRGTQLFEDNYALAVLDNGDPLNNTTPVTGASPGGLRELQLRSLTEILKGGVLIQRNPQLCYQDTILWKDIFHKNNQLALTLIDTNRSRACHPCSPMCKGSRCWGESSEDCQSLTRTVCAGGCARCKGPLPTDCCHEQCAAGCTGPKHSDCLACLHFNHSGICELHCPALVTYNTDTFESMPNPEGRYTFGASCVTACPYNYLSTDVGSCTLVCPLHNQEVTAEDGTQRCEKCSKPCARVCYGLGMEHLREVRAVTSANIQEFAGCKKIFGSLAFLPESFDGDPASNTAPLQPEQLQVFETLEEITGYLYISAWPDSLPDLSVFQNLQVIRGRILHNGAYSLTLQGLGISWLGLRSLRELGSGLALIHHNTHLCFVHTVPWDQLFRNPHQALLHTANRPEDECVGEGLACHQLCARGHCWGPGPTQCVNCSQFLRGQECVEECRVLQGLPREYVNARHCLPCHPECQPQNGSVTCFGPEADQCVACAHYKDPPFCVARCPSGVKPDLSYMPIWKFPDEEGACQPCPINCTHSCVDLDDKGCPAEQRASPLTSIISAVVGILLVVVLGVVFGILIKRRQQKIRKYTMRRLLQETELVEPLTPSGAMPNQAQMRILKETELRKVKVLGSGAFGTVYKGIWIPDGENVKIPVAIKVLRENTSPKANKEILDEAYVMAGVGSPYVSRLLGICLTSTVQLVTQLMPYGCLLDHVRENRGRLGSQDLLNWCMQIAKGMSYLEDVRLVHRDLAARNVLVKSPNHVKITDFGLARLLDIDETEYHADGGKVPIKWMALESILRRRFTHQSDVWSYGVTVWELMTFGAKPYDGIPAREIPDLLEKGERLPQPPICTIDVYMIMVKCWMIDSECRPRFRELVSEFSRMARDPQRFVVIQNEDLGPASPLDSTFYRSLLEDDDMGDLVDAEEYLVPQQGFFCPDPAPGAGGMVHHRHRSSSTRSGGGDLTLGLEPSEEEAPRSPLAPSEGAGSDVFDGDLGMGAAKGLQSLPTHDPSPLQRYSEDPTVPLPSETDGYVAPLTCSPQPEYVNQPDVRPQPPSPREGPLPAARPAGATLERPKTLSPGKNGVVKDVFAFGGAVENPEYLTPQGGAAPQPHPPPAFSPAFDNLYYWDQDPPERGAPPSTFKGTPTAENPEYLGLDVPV
The experiment in a line: Clone 24 phospho-erbB2 cell assay, Test (d). Format: cell-based. The settings on record: MCF7 derived cell line (Clone 24) overexpressing erbB2, 4 hours; read-out: IC50 (μM) Test (d): Inhibition of phosphorylation of erbB2. As to the method: The cells were resuspended in Growth Medium.
Plates were returned to the incubator for 4 hours and then 20 μl of 20% formaldehyde solution in PBS was added to each well and the plate was left at room temperature for 30 minutes. This fixative solution was removed with a multichannel pipette, 100 μl of PBS was added to each well and then removed with a multichannel pipette and then 50 μl PBS was added to each well. Plates were then sealed and stored for up to 2 weeks at 4° C.
Immunostaining was performed at room temperature. […] Then this primary antibody solution was removed from the wells using a plate washer followed by two 200 μl PBS/Tween 20 washes using a plate washer. […] From now onwards, wherever possible, plates were protected from light exposure, at this stage by sealing with black backing tape.
The Fluorescence signal is each well was measured using an Acumen Explorer Instrument (Acumen Bioscience Ltd.), a plate reader that can be used to rapidly quantitate features of images generated by laser-scanning. […] Fluorescence dose response data obtained with each compound was exported into a suitable software package (such as Origin) to perform curve fitting analysis. Inhibition of erbB2 phosphorylation was expressed as an IC50 value.

T1 sequence (P00533 669-1210 limits assumed): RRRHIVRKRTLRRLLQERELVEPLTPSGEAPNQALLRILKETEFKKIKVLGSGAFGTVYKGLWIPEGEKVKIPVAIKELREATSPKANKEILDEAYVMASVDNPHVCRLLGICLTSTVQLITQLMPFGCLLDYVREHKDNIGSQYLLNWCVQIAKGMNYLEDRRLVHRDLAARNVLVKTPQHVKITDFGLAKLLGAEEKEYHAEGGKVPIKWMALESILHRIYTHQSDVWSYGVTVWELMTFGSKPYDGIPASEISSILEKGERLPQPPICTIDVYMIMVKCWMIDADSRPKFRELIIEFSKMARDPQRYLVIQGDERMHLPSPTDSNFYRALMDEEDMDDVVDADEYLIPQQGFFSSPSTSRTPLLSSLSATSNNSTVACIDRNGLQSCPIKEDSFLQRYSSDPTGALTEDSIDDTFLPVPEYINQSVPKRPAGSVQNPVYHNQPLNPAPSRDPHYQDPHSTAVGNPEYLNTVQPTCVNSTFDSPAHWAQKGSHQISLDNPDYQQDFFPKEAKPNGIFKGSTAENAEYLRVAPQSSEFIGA

A word on the IC50: it is the concentration that gives 50% inhibition. Take `Cc1ccc(Oc2ccc(Nc3ncnc4[nH]nc(OCCN5CCOCC5)c34)cc2C)cn1` [Example 42, N-{3-methyl-4-[(6-methylpyridin-3-yl)oxy]phenyl}-3-(2-morpholin-4-ylethoxy)-1H-pyrazolo[3,4-d]pyrimidin-4-amine]: the IC50 at EGFR tyrosine kinase turned out to be 0.71 µM; on erbB2 tyrosine kinase, 0.027 µM; at erbB2, 0.083 µM.
